Results published in patent US9382188B2, “Aromatic ring compound” (TAKEDA PHARMACEUTICAL COMPANY LIMITED, priority 2012, dated 2016).

The compounds below were run against T1, human GPR40 (Homo sapiens, UniProt O14842) (assay: Evaluation of human GPR40 agonist activity with increase in intracellular Ca2+ concentration as an index (FLIPR Tetra)). Details: test compound 1 μM; CHO(dhfr-) cells stably expressing human GPR40; 100% = activity of 1 μM WO2009/048527 Example 99.2, 0% = DMSO.
T1 construct: expressed in transfected cells
Type: cell-based
Procedure, shortened: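 CHO(dhfr-) cells stably expressing human GPR40, loaded with Calcium 5 dye in HEPES/HBSS buffer with 0.2% fatty acid-free BSA and probenecid, 1 h at 37° C. Test compound added at 1 μM final; fluorescence Ca2+ rise scaled to a reference agonist at 1 μM (100%) and DMSO (0%).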

T1 sequence (O14842 whole entry): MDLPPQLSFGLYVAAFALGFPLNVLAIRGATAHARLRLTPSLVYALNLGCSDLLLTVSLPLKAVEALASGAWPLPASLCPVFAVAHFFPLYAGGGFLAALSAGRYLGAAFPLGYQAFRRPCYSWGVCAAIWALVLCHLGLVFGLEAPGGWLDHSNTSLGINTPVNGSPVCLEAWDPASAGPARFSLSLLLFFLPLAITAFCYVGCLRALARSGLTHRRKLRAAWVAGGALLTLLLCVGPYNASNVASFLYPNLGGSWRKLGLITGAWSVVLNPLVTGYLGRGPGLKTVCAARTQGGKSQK

activation at 1 µM [%]	SMILES
100	COc1ccc(F)c(-c2ccc(OCc3cccc(C(CC(=O)O)C4CC4)c3)cc2CC2(C#N)CCC2)c1 (stereo not shown) [Example 102, 3-(3-(((2-((1-cyanocyclobutyl)methyl)-2′-fluoro-5′-methoxybiphenyl-4-yl)oxy)methyl)phenyl)-3-cyclopropylpropanoic acid]
119	COc1ccc(F)c(-c2ccc(OCc3cccc(C(CC(=O)O)C4CC4)c3)cc2CC2(C#N)CC2)c1 (stereo not shown) [Example 103, 3-(3-(((2-((1-cyanocyclopropyl)methyl)-2′-fluoro-5′-methoxybiphenyl-4-yl)oxy)methyl)phenyl)-3-cyclopropylpropanoic acid]
105	COc1cc(-c2ccc(OCc3cccc(C(CC(=O)O)C4CC4)c3)cc2CC(C)(C)C)c(F)cn1 (stereo not shown) [Example 104, 3-cyclopropyl-3-(3-((3-(2,2-dimethylpropyl)-4-(5-fluoro-2-methoxypyridin-4-yl)phenoxy)methyl)phenyl)propanoic acid]
116	CCCC(C)(C)Cc1cc(OCc2cccc(C(CC(=O)O)C3CC3)c2)ccc1-c1cc(OC)ccc1F (stereo not shown) [Example 105, 3-cyclopropyl-3-(3-(((2-(2,2-dimethylpentyl)-2′-fluoro-5′-methoxybiphenyl-4-yl)oxy)methyl)phenyl)propanoic acid]
96	CCC(C)(C)Cc1cc(OCc2cccc(C(CC(=O)O)C3CC3)c2)ccc1-c1cc(OC)ccc1F (stereo not shown) [Example 106, 3-cyclopropyl-3-(3-(((2-(2,2-dimethylbutyl)-2′-fluoro-5′-methoxybiphenyl-4-yl)oxy)methyl)phenyl)propanoic acid]
126	CCC(C)(C)C(F)c1cc(OCc2cccc(C(CC(=O)O)C3CC3)c2)ccc1-c1cc(OC)ccc1F (stereo not shown) [Example 107, 3-cyclopropyl-3-(3-(((2′-fluoro-2-(1-fluoro-2,2-dimethylbutyl)-5′-methoxybiphenyl-4-yl)oxy)methyl)phenyl)propanoic acid]
129	CCC(C)(C)C(O)c1cc(OCc2cccc(C(CC(=O)O)C3CC3)c2)ccc1-c1cc(OC)ccc1F (stereo not shown) [Example 108, 3-cyclopropyl-3-(3-(((2′-fluoro-2-(1-hydroxy-2,2-dimethylbutyl)-5′-methoxybiphenyl-4-yl)oxy)methyl)phenyl)propanoic acid]
119	CCC(C)(C)C(OC)c1cc(OCc2cccc(C(CC(=O)O)C3CC3)c2)ccc1-c1cc(OC)ccc1F (stereo not shown) [Example 109, 3-cyclopropyl-3-(3-(((2′-fluoro-5′-methoxy-2-(1-methoxy-2,2-dimethylbutyl)biphenyl-4-yl)oxy)methyl)phenyl)propanoic acid]
94	CCC(C)(C)C(OCCOC)c1cc(OCc2cccc(C(CC(=O)O)C3CC3)c2)ccc1-c1cc(OC)ccc1F (stereo not shown) [Example 110, 3-cyclopropyl-3-(3-(((2′-fluoro-5′-methoxy-2-(1-(2-methoxyethoxy)-2,2-dimethylbutyl)biphenyl-4-yl)oxy)methyl)phenyl)propanoic acid]
111	CCC(CC)(CC)Cc1cc(OCc2cccc(C(CC(=O)O)C3CC3)c2)ccc1-c1cc(OC)ccc1F (stereo not shown) [Example 111, 3-cyclopropyl-3-(3-(((2-(2,2-diethylbutyl)-2′-fluoro-5′-methoxybiphenyl-4-yl)oxy)methyl)phenyl)propanoic acid]
108	CCC(C)(CC)Cc1cc(OCc2cccc(C(CC(=O)O)C3CC3)c2)ccc1-c1cc(OC)ccc1F (stereo not shown) [Example 112, 3-cyclopropyl-3-(3-(((2-(2-ethyl-2-methylbutyl)-2′-fluoro-5′-methoxybiphenyl-4-yl)oxy)methyl)phenyl)propanoic acid]
102	COc1ccc(F)c(-c2ccc(OCc3cccc(C(CC(=O)O)C4CC4)c3)cc2CCCC(C)(C)C)c1 (stereo not shown) [Example 113, 3-cyclopropyl-3-(3-(((2-(4,4-dimethylpentyl)-2′-fluoro-5′-methoxy-[1,1′-biphenyl]-4-yl)oxy)methyl)phenyl)propanoic acid]
103	COc1ccc(F)c(-c2ccc(OCc3cccc(C(CC(=O)O)C4CC4)c3)cc2COCC(C)(C)C)c1 (stereo not shown) [Example 114, 3-cyclopropyl-3-(3-(((2′-fluoro-5′-methoxy-2-((neopentyloxy)methyl)-[1,1′-biphenyl]-4-yl)oxy)methyl)phenyl)propanoic acid]
